Measurements: patent publication US20260265233A1, “BENZOTHIOPHENE DERIVATIVES AS RXFP1 AGONISTS” (BRISTOL-MYERS SQUIBB COMPANY, priority 2021, published 2026)

Target: T1, human RXFP1 (Homo sapiens, UniProt Q9HBX9)
T1 construct: expressed in transfected cells
T1 sequence (Q9HBX9 1-757): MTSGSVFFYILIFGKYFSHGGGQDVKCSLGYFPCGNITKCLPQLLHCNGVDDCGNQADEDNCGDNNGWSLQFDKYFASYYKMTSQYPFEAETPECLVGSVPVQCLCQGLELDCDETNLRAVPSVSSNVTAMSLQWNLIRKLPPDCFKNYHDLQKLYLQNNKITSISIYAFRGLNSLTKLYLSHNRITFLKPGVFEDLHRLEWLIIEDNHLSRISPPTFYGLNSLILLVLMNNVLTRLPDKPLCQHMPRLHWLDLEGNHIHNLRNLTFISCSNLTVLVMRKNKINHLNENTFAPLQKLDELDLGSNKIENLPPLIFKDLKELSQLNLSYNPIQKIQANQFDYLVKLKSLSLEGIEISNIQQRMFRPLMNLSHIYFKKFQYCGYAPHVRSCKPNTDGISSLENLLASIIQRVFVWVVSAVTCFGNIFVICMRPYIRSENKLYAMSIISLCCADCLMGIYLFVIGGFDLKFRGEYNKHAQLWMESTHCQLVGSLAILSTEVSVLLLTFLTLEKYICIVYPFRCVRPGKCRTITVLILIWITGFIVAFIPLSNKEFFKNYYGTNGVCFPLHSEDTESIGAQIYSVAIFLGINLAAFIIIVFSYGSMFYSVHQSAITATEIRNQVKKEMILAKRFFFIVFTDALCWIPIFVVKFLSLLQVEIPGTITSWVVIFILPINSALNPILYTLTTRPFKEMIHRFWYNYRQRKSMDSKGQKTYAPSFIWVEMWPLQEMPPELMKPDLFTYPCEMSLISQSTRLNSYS
Test: hRXFP1 HEK293 cAMP assay (HTRF)
Format: cell-based
Settings: HEK293 cells stably expressing human RXFP1; 30 min at rt; intracellular cAMP by HTRF
Method in brief: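 HEK293 cells stably expressing human RXFP1 treated 30 min at rt with compound (0.010 nM to 50 μM, 2% DMSO) in HBSS/HEPES buffer with 0.5 mM IBMX. Intracellular cAMP measured by HTRF (665/590 nm ratio) against a cAMP standard curve; potency fitted by 4-parameter logistic.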
`COc1ccc(C2=NOC3CN(C(=O)OC(C)(C)C)CC23)cc1C(=O)Nc1c(C(=O)Nc2ccc(F)c(C(F)(F)F)c2)sc2cc(C(F)(F)F)ccc12` (single isomer, unassigned) [Example 244, tert-butyl 3-(3-((2-((4-fluoro-3-(trifluoromethyl)phenyl)carbamoyl)-6-(trifluoromethyl)benzo[b]thiophen-3-yl)carbamoyl)-4-methoxyphenyl)-3a,4,6,6a-tetrahydro-5H-pyrrolo[3,4-d]isoxazole-5-carboxylate] showed an EC50 of 0.36 µM.
For `COc1ccc(C2=NOC3CC(NC(=O)CO)CC23)cc1C(=O)Nc1c(C(=O)Nc2ccc(F)c(C(F)(F)F)c2)sc2cc(C(F)(F)F)ccc12` (centres unmarked) [Example 261, N-[4-fluoro-3-(trifluoromethyl)phenyl]-3-{5-[5-(2-hydroxy-acetamido)-3aH,4H,5H,6H, 6aH-cyclopenta[d] [1,2]oxazol-3-yl]-2-methoxy-benzamido}-6-(trifluoromethyl)-1-benzothiophene-2-carboxamide], the EC50 was 0.0907 µM.
For `COc1ccc(N2CCC(NCCS(C)(=O)=O)C2)cc1C(=O)Nc1c(C(=O)Nc2ccc(F)c(C(F)(F)F)c2)sc2cc(C(F)(F)F)ccc12` (centres unmarked) [Example 68, N-(4-fluoro-3-(trifluoromethyl)phenyl)-3-(2-methoxy-5-(3-((2-(methylsulfonyl)ethyl)amino)pyrrolidin-1-yl)benzamido)-6-(trifluoromethyl) benzo[b] thiophene-2-carboxamide], the EC50 was 1.08 µM.
`COCCNC(=O)c1ccc(OC)c(C(=O)Nc2c(C(=O)Nc3ccc(F)c(C(F)(F)F)c3)sc3cc(C(F)(F)F)ccc23)c1` [Example 218, N3-(2-((4-fluoro-3-(trifluoromethyl)phenyl)carbamoyl)-6-(trifluoromethyl)benzo[b]thiophen-3-yl)-4-methoxy-N1-(2-methoxyethyl) isophthalamide] gave an EC50 of 1.13 µM.
Work on `COc1ccc(C2=NOC3CNCC23)cc1C(=O)Nc1c(C(=O)Nc2ccc(F)c(C(F)(F)F)c2)sc2cc(C(F)(F)F)ccc12` (centres unmarked) [Example 246, N-(4-fluoro-3-(trifluoromethyl)phenyl)-3-(2-methoxy-5-(3a,5,6,6a-tetrahydro-4H-pyrrolo[3,4-d]isoxazol-3-yl)benzamido)-6-(trifluoromethyl) benzo[b] thiophene-2-carboxamide] yielded an EC50 of 0.724 µM.
Compound `COc1ccc(C(=O)N2CCC(O)CC2)cc1C(=O)Nc1c(C(=O)Nc2ccc(F)c(C(F)(F)F)c2)sc2cc(C(F)(F)F)ccc12` [Example 132, N-(4-fluoro-3-(trifluoromethyl)phenyl)-3-(5-(4-hydroxy-piperidine-1-carbonyl)-2-methoxy-benzamido)-6-(trifluoromethyl) benzo[b] thiophene-2-carboxamide] has an EC50 of 0.135 µM.
Compound `COc1ccc(C2=NOC3(CCNCC3)C2)cc1C(=O)Nc1c(C(=O)Nc2ccc(F)c(C(F)(F)F)c2)sc2cc(C(F)(F)F)ccc12` [Example 272, N-(4-fluoro-3-(trifluoromethyl)phenyl)-3-(2-methoxy-5-(1-oxa-2,8-diazaspiro[4.5]dec-2-en-3-yl)benzamido)-6-(trifluoromethyl) benzo[b] thiophene-2-carboxamide] has an EC50 of 0.9 µM.
Work on `COc1ccc(C2CCN(C(=O)C(C)(C)O)C2)cc1C(=O)Nc1c(C(=O)Nc2ccc(F)c(C(F)(F)F)c2)sc2cc(C(F)(F)F)ccc12` (centres unmarked) [Example 151, N-(4-fluoro-3-(trifluoromethyl)phenyl)-3-(5-(1-(2-hydroxy-2-methylpropanoyl)pyrrolidin-3-yl)-2-methoxy-benzamido)-6-(trifluoromethyl) benzo[b] thiophene-2-carboxamide] yielded an EC50 of 0.208 µM.
In the case of `COc1ccc(-c2cc(CO)on2)cc1C(=O)Nc1c(C(=O)Nc2ccc(F)c(C(F)(F)F)c2)sc2cc(C(F)(F)F)ccc12` [Example 287, N-(4-fluoro-3-(trifluoromethyl)phenyl)-3-(5-(5-(hydroxymethyl)isoxazol-3-yl)-2-methoxy-benzamido)-6-(trifluoromethyl) benzo[b] thiophene-2-carboxamide], the EC50 is reported as 1.26 µM.
In the case of `COc1ccc(N2CCCC(C(=O)NCC(C)(C)O)C2)cc1C(=O)Nc1c(C(=O)Nc2ccc(F)c(C(F)(F)F)c2)sc2cc(C(F)(F)F)ccc12` (single isomer, unassigned) [Example 8, 1-(3-((2-((4-fluoro-3-(trifluoromethyl)phenyl)carbamoyl)-6-(trifluoromethyl)benzo[b]thiophen-3-yl)carbamoyl)-4-methoxyphenyl)-N-(2-hydroxy-2-methylpropyl) piperidine-3-carboxamide], the EC50 is reported as 2.02 µM.
In the case of `COc1ccc(C2CCCN(CC(=O)N(C)C)C2)cc1C(=O)Nc1c(C(=O)Nc2ccc(F)c(C(F)(F)F)c2)sc2cc(C(F)(F)F)ccc12` (single isomer, unassigned) [Example 101, 3-(5-(1-(2-(dimethylamino)-2-oxoethyl)piperidin-3-yl)-2-methoxy-benzamido)-N-(4-fluoro-3-(trifluoromethyl)phenyl)-6-(trifluoromethyl) benzo[b] thiophene-2-carboxamide], the EC50 is reported as 4.42 µM.
Work on `COc1ccc(C2CCN(C(=O)C3(C)COC3)C2)cc1C(=O)Nc1c(C(=O)Nc2ccc(F)c(C(F)(F)F)c2)sc2cc(C(F)(F)F)ccc12` (centres unmarked) [Example 135, N-(4-fluoro-3-(trifluoromethyl)phenyl)-3-(2-methoxy-5-(1-(3-methyloxetane-3-carbonyl)pyrrolidin-3-yl)benzamido)-6-(trifluoromethyl) benzo[b] thiophene-2-carboxamide] yielded an EC50 of 0.488 µM.
`COc1ccc(C2CC2C(C)(C)O)cc1C(=O)Nc1c(C(=O)Nc2ccc(F)c(C(F)(F)F)c2)sc2cc(C(F)(F)F)ccc12` (single isomer, unassigned) [Example 161, N-[4-fluoro-3-(trifluoromethyl)phenyl]-3-{5-[2-(2-hydroxypropan-2-yl)cyclopropyl]-2-methoxy-benzamido}-6-(trifluoromethyl)-1-benzothiophene-2-carboxamide] showed an EC50 of 4.94 µM.

Test system: not given
Test: not given
Settings: intravenous (IV) formulation; cited from earlier work
For “Serelaxin: "an intravenous (IV) formulation of the recombinant human relaxin peptide with a relatively short first-phase pharmacokinetic half-life of 0.09 hours"”, the first-phase pharmacokinetic half-life is given as 5.4 min.
